Results reported in PubChem BioAssay (NCI).
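Compound exposure: 48 hours, 5 concentrations, 96-well plates. At the GI50, growth is halved. TGI marks complete inhibition of growth.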

Assays:
Assay in all cases: NCI-60 cell line screen, 48 h
ACHN renal = tested on: ACHN renal
BT-549 breast = tested on: BT-549 breast
DU-145 prostate = tested on: DU-145 prostate
EKVX NSCLC = tested on: EKVX NSCLC
HCC-2998 colon = tested on: HCC-2998 colon
HL-60(TB) leukemia = tested on: HL-60(TB) leukemia
HS 578T breast = tested on: HS 578T breast
MCF7 breast = tested on: MCF7 breast
MOLT-4 leukemia = tested on: MOLT-4 leukemia
U251 CNS = tested on: U251 CNS

SMILES | TGI (ACHN renal) [µM] | TGI (BT-549 breast) [µM] | TGI (DU-145 prostate) [µM] | TGI (EKVX NSCLC) [µM] | TGI (HCC-2998 colon) [µM] | TGI (HL-60(TB) leukemia) [µM] | TGI (HS 578T breast) [µM] | TGI (MCF7 breast) [µM] | TGI (MOLT-4 leukemia) [µM] | TGI (U251 CNS) [µM] | GI50 (ACHN renal) [µM] | GI50 (BT-549 breast) [µM] | GI50 (DU-145 prostate) [µM] | GI50 (EKVX NSCLC) [µM] | GI50 (HCC-2998 colon) [µM] | GI50 (HL-60(TB) leukemia) [µM] | GI50 (HS 578T breast) [µM] | GI50 (MCF7 breast) [µM] | GI50 (MOLT-4 leukemia) [µM] | GI50 (U251 CNS) [µM]
CC1(C)CCC[C@]2(C)[C@@H](C=O)C(C=O)=CC[C@@H]12 | 30.6 | 74.2 | 50.3 | > 100 | 32.7 | 36.5 | > 100 | 31 | 30.5 | 46.9 |  |  |  |  |  |  |  |  |  | 
COc1cc(/C=C/[N+](=O)[O-])cc(Br)c1OC | 6.49 | 6.62 | 3.56 | 14.6 | 3.15 | > 100 | 15.9 | 7.43 | 53.6 | 3.75 | 2.5 | 2.77 | 1.8 | 3.32 | 1.71 | 1.62 | 2.9 | 1.93 | 3.52 | 1.77
CN1CCC(n2cnc(-c3ccc(F)cc3)c2-c2ccnc(N)n2)CC1 | > 25 | > 25 | > 25 | > 25 | > 25 | > 25 | > 25 | > 25 | > 25 | > 25 | 5.71 | 15.3 | 10.7 | 10.3 | 8.98 | > 25 | 15.3 | 1.32 | 12.6 | 8.53
CC1(C)N=C(N)N=C(N)N1c1ccc(CCCCc2ccc(S(=O)(=O)F)cc2)c(Cl)c1 | > 100 | 22.5 | 17.5 |  | 20.9 | 23.6 | 32.1 | 14.2 | 21.4 | 16.4 | 0.789 | 9.61 | 0.484 |  | 0.884 | 0.181 | 9.27 | 0.198 | 0.518 | 0.0936
CC1=CC(=O)C(O)C2(C)C1CC(O)C13COC4(C)C(OC(=O)C41)C(O)C23 (centres undefined) | 20.3 | 43.4 | 31.6 | 41.6 |  | > 100 | 57.2 | 21.9 | 7.34 | 31.6 | 4.75 | 11 | 4.36 | 11.9 |  | 4.24 | 12.5 | 3.95 | 0.0398 | 6.1
CCN(Cc1ccc(Cl)s1)c1ccc(CO)c(Cl)c1 | > 100 | 24.8 | > 60.4 |  | 28.6 | 26.2 | > 60.4 | 12.3 | > 75.1 | 13.2 | 4.68 | 8.19 | 12 |  | 5.81 | 3.11 | 11.7 | 0.119 | 21.5 | 0.434
Cc1ccc2nc(NC(=O)/C(Cc3nc4ccc(Cl)cc4[nH]c3=O)=N\NC(C)(C)C)sc2c1 | > 100 | > 100 | > 100 |  | > 100 | > 100 | 73 | > 100 | > 100 | > 100 |  |  |  |  |  |  |  |  |  | 
CSC(=S)N/N=C(\C)c1cccc(C)n1 | 3.48 | 57.7 | 12.8 | > 43.3 | 30.4 | 3.07 | > 89 | > 13.2 |  | 33.8 |  |  |  |  |  |  |  |  |  | 
CCN(CCO)CC(C)Nc1ccc([N+](=O)[O-])c2sc3ccccc3c(=O)c12 (centres undefined) | 12.1 | 13.1 | 4.9 | 6.28 |  | 4 | 10.5 | 4.15 | 2.89 | 3.35 | 1.01 | 2.1 | 1.24 | 1.67 |  | 0.917 | 1.75 | 0.436 | 0.361 | 0.716
Cc1c(C2=C(c3cn(C)c4ccccc34)C(=O)NC2=O)c2ccccc2n1C | > 25 | > 25 | > 25 |  | > 25 | > 25 | > 25 | > 25 | > 25 | > 25 | 4.57 | 2.09 | 9.62 |  | 24.9 | 0.962 | 0.943 | 0.997 | 2.18 | 2.01
N/N=C1\CC(=O)NC(=O)N1 | > 100 | > 100 | > 100 | > 100 |  | > 100 | > 100 | > 100 | > 100 | > 100 |  |  |  |  |  |  |  |  |  | 
COc1cc2c(c(OC)c1OC)-c1ccc(SC)c(=O)cc1[C@@H](NC1OC(CO)C(O)C(O)C1O)CC2 (some centres undefined) | > 100 | > 100 | > 100 |  | > 100 | 0.0666 | 61 | > 100 | > 100 | 24.4 | 0.0744 | 0.0679 | 0.0352 |  | 0.0368 | 0.0227 | 0.0425 | 0.0215 | 0.0418 | 0.0318
CCOc1nc(N)nc(C)c1N=Nc1ccc(Cl)cc1 | > 100 | > 100 | > 100 | > 100 |  | > 100 | 38.4 | > 100 | > 100 | > 100 |  |  |  |  |  |  |  |  |  | 
